Experimental findings from US20070275911A1, “Targeted Drug-Formaldehyde Conjugates and Methods of Making and Using the Same” (priority 2003, published 2007) are described below.

The target of one data set is T1, human AR (Homo sapiens, UniProt P10275).
T1 construct: expressed in transfected cells; host or cells: PC3/AR cells (gift of Dr. Kerry Burnstein, University of Miami); cytosolic fraction of sonicated lysate
T1 sequence (P10275 1-920): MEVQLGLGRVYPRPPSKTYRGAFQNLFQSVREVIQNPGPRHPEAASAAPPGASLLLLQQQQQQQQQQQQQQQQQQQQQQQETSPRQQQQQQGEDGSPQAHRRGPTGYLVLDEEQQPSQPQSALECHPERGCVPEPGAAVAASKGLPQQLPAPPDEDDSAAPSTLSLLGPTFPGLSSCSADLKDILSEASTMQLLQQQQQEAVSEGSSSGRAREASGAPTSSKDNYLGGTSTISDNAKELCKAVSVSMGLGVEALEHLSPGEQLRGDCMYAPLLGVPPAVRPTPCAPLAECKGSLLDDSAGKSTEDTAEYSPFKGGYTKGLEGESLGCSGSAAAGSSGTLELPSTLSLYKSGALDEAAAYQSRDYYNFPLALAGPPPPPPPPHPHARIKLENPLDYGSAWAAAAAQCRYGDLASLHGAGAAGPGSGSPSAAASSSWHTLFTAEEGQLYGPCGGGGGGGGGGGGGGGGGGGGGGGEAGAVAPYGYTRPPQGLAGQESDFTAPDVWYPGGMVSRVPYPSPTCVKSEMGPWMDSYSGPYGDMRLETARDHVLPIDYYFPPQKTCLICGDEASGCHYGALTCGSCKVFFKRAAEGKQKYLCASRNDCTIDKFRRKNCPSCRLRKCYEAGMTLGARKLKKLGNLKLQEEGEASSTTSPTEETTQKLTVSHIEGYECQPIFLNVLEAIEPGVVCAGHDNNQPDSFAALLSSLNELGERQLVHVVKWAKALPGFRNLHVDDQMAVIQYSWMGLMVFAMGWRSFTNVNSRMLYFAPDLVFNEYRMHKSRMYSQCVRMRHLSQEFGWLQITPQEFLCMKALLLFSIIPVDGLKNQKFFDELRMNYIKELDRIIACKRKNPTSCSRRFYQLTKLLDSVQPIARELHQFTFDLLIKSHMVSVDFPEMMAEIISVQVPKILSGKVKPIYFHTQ
The data set is described as follows: biochemical. It counts as binding.

Another data set has as its system AR-GFP receptor. It counts as cell-based. The settings on record: for inhibition of the action of 1.0 nM Mibolerone on AR-GFP: co-treatment with 1.0 nM Mibolerone. The procedure: PC3 cells were, therefore, grown in 6 well plates and transiently transfected with a plasmid containing the AR-GFP construct obtained from Dr. Arun Roy (UTHSC; San Antonio, Tex.).
This cell suspension was dispensed in 2 mL aliquots into 6-well tissue culture plates. […] To each solution was added 2 μL of a 800 μg/mL solution of the pEGFP-C2 rcAR plasmid in Millipore water. After gentle mixing, the transfection cocktail was allowed to incubate at room temperature for 40 min. […] The growth medium was again replaced with 1 mL of phenol red-free RPMI supplemented with dextran-coated charcoal-stripped FBS. Candidate AR-GFP expressing cells in each well were identified and marked before an appropriate concentrations of the test compounds were added in 10 μL of sterile DMSO.

The next data set deals with T2, estrogen receptor (Homo sapiens, UniProt P03372).
T2 construct: endogenous in cells; host or cells: MCF-7 cells (ATCC); 225,000 g supernatant of sonicated lysate
The data set is described as follows: Estrogen receptor competitive binding assay (3H-E2, MCF-7 cell lysate). Conditions: relative to E/Z-4-OHT = 100.

Data set [1] is described as follows: Hydrolysis of anthracycline-formaldehyde N-Mannich bases followed by HPLC. Conditions: for stability under AR binding assay conditions: reaction buffer, 30 min incubation at 4° C., HPLC. The procedure: The area under the curve for the N-Mannich base was determined at each time point and was used to establish the kinetics of decomposition, using regression software. Hydrolysis of AOM-doxsaliform was carried out in pH 8.0 100 mM sodium phosphate buffer at 37° C. AOM-doxsaliform was dissolved in 48.0 μL DMSO and this solution was diluted into phosphate buffer to give 4.8 mL of an […] solution containing 1% DMSO. To this solution was added 6 μL of pig liver esterase (0.8 units/μL; Sigma; Milwaukee, Wis.) to achieve a final concentration of 1.0 units/mL. […] Brief centrifugation served to pellet the insoluble fraction. The drug solution was then transferred to a round bottom flask and concentrated by brief rotary-evaporation at 20° C. Reverse phase HPLC was used to analyze the extent of hydrolysis.
Hydrolysis of the N-Mannich bases, prepared from either doxorubicin or daunorubicin and the respective amides, at 37° C. in pH 7.4 triethylammonium acetate (TEAA) buffer (20 mM) containing 10-30% MeOH was monitored by reverse phase HPLC. […] Identification of a less robust construct that could be used to rapidly deliver the active Schiff base metabolite of doxorubicin to a growing tumor was undertaken.

For another data set, the system named is PC3/AR and PC3/neo cells. The settings on record: for intracellular distribution of fluorescence over time: 3 h treatment / over time. As for the experimental part:
The fluorescence of doxorubicin can be monitored in order to determine the rate of uptake and intracellular distribution of the anthraquinone fluorophore.
This cell suspension was dispensed in 2 mL aliquots into 6-well tissue culture plates. Plates were then incubated for 36 h at 37° C. in a humidified atmosphere of 5% CO2 and 95% air. The medium was replaced with 1 mL of phenol red-free RPMI 1640 growth medium supplemented with 10% dextran-coated charcoal stripped FBS prior to addition of the test compound. The appropriate compound was dissolved in DMSO and the concentration was adjusted to 50-200 μM by measuring the solution absorbance at 480 nm. Addition of 10 μL of the appropriate doxorubicin or prodrug solution was followed by incubation at 37° C. as indicated. The drug solution in individual wells was removed at the appropriate time and the cells were washed with 1 mL of the phenol red-free growth medium. The washed cells were then supplemented with 1 mL of phenol-red free growth medium for imaging.

Where [2] appears, read: vs 1.0 nM 3H-Mibolerone, PC3/AR cell lysate, 4° C. (Table 4, Example 3 numbering).
Where [3] appears, read: vs 1.0 nM 3H-Mibolerone, PC3/AR cell lysate, 4° C., 30 min (Table 3, Example 2 numbering).
Where [4] appears, read: relative binding affinity (Table 4, Example 3 numbering).

pIC50: −log10 of the molar value. Like-named read-outs stand apart in the source and are kept apart here. Bounds are passed on as bounds.

T2 sequence (P03372 whole entry): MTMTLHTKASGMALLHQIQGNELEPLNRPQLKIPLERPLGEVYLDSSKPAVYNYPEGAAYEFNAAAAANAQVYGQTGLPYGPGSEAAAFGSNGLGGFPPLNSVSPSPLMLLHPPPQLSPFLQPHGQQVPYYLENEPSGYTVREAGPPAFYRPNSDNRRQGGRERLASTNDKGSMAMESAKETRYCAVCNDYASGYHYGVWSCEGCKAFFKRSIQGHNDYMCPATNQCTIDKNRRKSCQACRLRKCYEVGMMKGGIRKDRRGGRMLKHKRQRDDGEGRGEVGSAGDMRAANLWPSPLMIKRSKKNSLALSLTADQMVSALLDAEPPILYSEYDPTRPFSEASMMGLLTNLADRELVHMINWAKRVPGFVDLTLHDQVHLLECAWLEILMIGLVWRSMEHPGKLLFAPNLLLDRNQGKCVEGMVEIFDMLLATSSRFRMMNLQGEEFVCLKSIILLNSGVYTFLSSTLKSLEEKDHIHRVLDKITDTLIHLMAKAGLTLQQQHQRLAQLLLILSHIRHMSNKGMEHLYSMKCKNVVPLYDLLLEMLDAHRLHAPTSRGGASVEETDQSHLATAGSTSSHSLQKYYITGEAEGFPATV

What is called pIC50 is the negative decadic logarithm of the IC50, by convention in mol/L. Lower therefore signals a high IC50. `CC1(C)NC(=O)N(c2ccc(C#N)c(C(F)(F)F)c2)C1=O` [2f, 4-(4,4-Dimethyl-2,5-dioxo-imidazolidin-1-yl)-2-trifluoromethylbenzonitrile]: on human AR, the pIC50 was 8.22, the RBA was 150 and the “RBA as fraction of nilutamide binding” value worked out at 150%. In addition, the “nuclear translocation of AR-GFP” value with AR-GFP receptor (concentration not given) is “induce partial translocation”.
Take `CCCC(=O)OCOc1ccc(COCC#CCN2C(=O)N(c3ccc(C#N)c(C(F)(F)F)c3)C(=O)C2(C)C)cc1C(N)=O` [6b]: in the data set with AR-GFP receptor (concentration not given), the “nuclear translocation of AR-GFP” value was “causing nuclear translocation of the AR upon binding”.
`CC1(C)C(=O)N(c2ccc(C#N)c(C(F)(F)F)c2)C(=O)N1CCOCCOCc1ccc(O)c(C(N)=O)c1` [8a, 5-(2-{2-[3-(4-Cyano-3-trifluoromethyl-phenyl)-5,5-dimethyl-2,4-dioxo-imidazolidin-1-yl]-ethoxy}-ethoxymethyl)-2-hydroxy-benzamide]: the pIC50 against human AR (setting [2]) and against human AR (setting [3]) was 7.11 each time.
On to `CC1(C)C(=O)N(c2ccc(C#N)c(C(F)(F)F)c2)C(=O)N1CCOCCOCCOCc1ccc(O)c(C(N)=O)c1` [8b, 5-[2-(2-{2-[3-(4-Cyano-3-trifluoromethyl-phenyl)-5,5-dimethyl-2,4-dioxo-imidazolidin-1-yl]-ethoxy}-ethoxy)-ethoxymethyl]-2-hydroxy-benzamide], for which the pIC50 at human AR (setting [2]) and against human AR (setting [3]) was 6.48 in each case.
As to `CC1(C)C(=O)N(c2ccc(C#N)c(C(F)(F)F)c2)C(=O)N1CC#CCOCc1ccc(O)c(C(N)=O)c1` [8c, 5-{4-[3-(4-Cyano-3-trifluoromethyl-phenyl)-5,5-dimethyl-2,4-dioxo-imidazolidin-1-yl]-but-2-ynyloxymethyl}-2-hydroxy-benzamide], at human AR (setting [3]), the pIC50 is 7.31.
As for `CCC(=C(c1ccc(O)cc1)c1ccc(OCCN(C)CCON=Cc2ccc(O)c(C(N)=O)c2)cc1)c1ccccc1` [10a], the “RBA^OHT” value at estrogen receptor is on record as 1.7.
The same measure, in the same setting: as for `CCC(=C(c1ccc(O)cc1)c1ccc(OCCN(C)CCOCCON=Cc2ccc(O)c(C(N)=O)c2)cc1)c1ccccc1` [10b, E/Z-2-Hydroxy-5-[(2-{2-[(2-{4-[1-(4-hydroxy-phenyl)-2-phenyl-but-1-enyl]-phenoxy}-ethyl)-methyl-amino]-ethoxy}-ethoxyimino)-methyl]-benzamide], the figure is 3.3.
`CC1(C)C(=O)N(c2ccc(C#N)c(C(F)(F)F)c2)C(=O)N1CCCCN1CCN(CCOCc2ccc(O)c(C(N)=O)c2)CC1` [12a, 5-[2-(4-{4-[3-(4-Cyano-3-trifluoromethyl-phenyl)-5,5-dimethyl-2,4-dioxo-imidazolidin-1-yl]-butyl}-piperazin-1-yl)-ethoxymethyl]-2-hydroxy-benzamide]: the RBA on human AR and at human AR (setting [4]) was <1 each time. Also, the pIC50 at human AR (setting [2]) is < 6.00. For the same molecule, in the data set on AR-GFP receptor, the “inhibition of the action of 1.0 nM Mibolerone on AR-GFP” value (“inhibition” below) is “not capable of inhibiting the action of 1.0 nM Mibolerone”. For the same molecule, the “nuclear translocation of AR-GFP” value in the data set on AR-GFP receptor (concentration not given) is “does not instigate translocation”.
In the case of `CC1(C)C(=O)N(c2ccc(C#N)c(C(F)(F)F)c2)C(=O)N1CCOCCN1CCN(CCOCc2ccc(O)c(C(N)=O)c2)CC1` [12b], the RBA at human AR and at human AR (setting [4]) was 3 throughout. For the same molecule, the pIC50 against human AR (setting [2]) and against human AR (setting [3]) was 6.46 throughout. Moreover, in the data set on AR-GFP receptor, the “inhibition” value is recorded as “not capable of inhibiting the action of 1.0 nM Mibolerone”. In the data set on AR-GFP receptor (concentration not given), the “nuclear translocation of AR-GFP” value is “does not instigate translocation”.
As to `COc1cccc2c1C(=O)c1c(O)c3c(c(O)c1C2=O)C[C@@](O)(C(=O)CO)C[C@@H]3O[C@H]1C[C@H](NCNC(=O)c2ccccc2OCOC(C)=O)[C@H](O)[C@H](C)O1` [AOM-doxsaliform, N-[(2-Acetoxymethyloxy)-benzamidomethyl]-doxorubicin], the “release of doxorubicin from acetoxymethylene-protected derivative” value in data set [1] (37° C., pH 7.3 RPMI 1640, 3 h of observation) is listed as “no hydrolysis was evident”. In addition, in the data set with PC3/AR and PC3/neo cells, the “intracellular distribution of fluorescence over time” value was “accumulate, at least to some extent over time (>3 h), in the nuclei”.
As for `C[C@@H]1CC2=CC(=O)CC[C@@H]2[C@H]2CC[C@@]3(C)[C@@H](CC[C@]3(C)O)[C@@H]21` [Mibolerone, reference compound], the “nuclear translocation of AR-GFP” value in the data set with AR-GFP receptor (1.0 nM) was “causes nuclear translocation of the AR-GFP receptor”.
As for `CCCC(=O)OCOc1ccc(COCC#CCN2C(=O)N(c3ccc(C#N)c(C(F)(F)F)c3)C(=O)C2(C)C)cc1C(=O)NCNC1CC(OC2CC(O)(C(=O)CO)Cc3c(O)c4c(c(O)c32)C(=O)c2c(OC)cccc2C4=O)OC(C)C1O` (stereo not drawn) [compound 10, N-(5-{4-[3-(4-Cyano-3-trifluoromethyl-phenyl)-5,5-dimethyl-2,4-dioxo-imidazolidin-1-yl]-but-2-ynyloxymethyl}-2-butyryloxymethoxybenzamidomethyl)-doxorubicin], in data set [1], the “stability under AR binding assay conditions” value was “stable under the assay conditions”. Further, the RBA on human AR (setting [4]) was determined as 14. The same molecule gave a pIC50 against human AR (setting [2]) of 7.20. In addition, the “intracellular distribution of fluorescence over time” value with PC3/AR and PC3/neo cells is “remains primarily cytosolic over time”. Also, the “initial intracellular distribution of fluorescence” value in the data set on PC3/AR and PC3/neo cells (upon initial treatment, 500 nM) was “predominantly cytosolic”. The “nuclear translocation of AR-GFP” value in the data set with AR-GFP receptor (1.0 μM (up to)) is on record as “did not instigate translocation into the nucleus”. For the same molecule, in the data set on AR-GFP receptor, the “inhibition” value is given as “did serve to inhibit the action of 1.0 nM Mibolerone”.
Regarding `COc1cccc2c1C(=O)c1c(O)c3c(c(O)c1C2=O)C[C@@](O)(C(=O)CO)C[C@@H]3OC1C[C@H](NCNC(=O)c2cc(COCC#CCN3C(=O)N(c4ccc(C#N)c(C(F)(F)F)c4)C(=O)C3(C)C)ccc2O)[C@H](O)[C@H](C)O1` (stereo partly drawn) [compound 13, N-(5-{4-[3-(4-Cyano-3-trifluoromethyl-phenyl)-5,5-dimethyl-2,4-dioxo-imidazolidin-1-yl]-but-2-ynyloxymethyl)-2-hydroxy-benzamidomethyl)-doxorubicin], the “stability under AR binding assay conditions” value is “no appreciable hydrolysis” in data set [1] and “stable under the assay conditions” in data set [1] (listed as 9). This molecule also gave a pIC50 against human AR of 7.05. For the same molecule, the RBA at human AR and at human AR (setting [4]) was 10 in each case. The “intracellular distribution of fluorescence over time” value in the data set on PC3/AR and PC3/neo cells was “primarily localized to the nucleus”.
